From patent US12502386B2, “Nitrogen-containing heterocyclic compound and use thereof” (SHANGHAI SHIJIANG BIOTECHNOLOGY CO., LTD, priority 2022, dated 2025)

Legend:
[1] = test system: Con-NCI-H82 cell; assay: CellTiter-Glo cell viability, Con-NCI-H82 cell (empty-vector control); type: cell-based, human; conditions: Homo sapiens, NCI-H82, NCI-H82 transfected with empty virus vector (control), intracellular ATP, read-out: inhibitory effect on Con-NCI-H82 (IC50)
[2] = test system: ov-NNMT NCI-H82 cell; assay: CellTiter-Glo cell viability, ov-NNMT NCI-H82 cell (NNMT overexpressed); type: cell-based, human; conditions: Homo sapiens, NCI-H82, NCI-H82 overexpressing NNMT protein, intracellular ATP, read-out: inhibitory effect on OV-NNMT NCI-H82 (IC50)
[3] = test system: sh-DNMT1 NCI-H82 cell; assay: CellTiter-Glo cell viability, sh-DNMT1 NCI-H82 cell (DNMT1 knocked down); type: cell-based, human; conditions: Homo sapiens, NCI-H82, NCI-H82 with DNMT1 knocked down by shRNA, intracellular ATP, read-out: inhibitory effect on sh-DNMT1 NCI-H82 (IC50)
[4] = test system: NCI-H82; assay: CellTiter-Glo cell viability, tumor cell line NCI-H82; type: cell-based; conditions: NCI-H82, 72 h; human small cell lung cancer cell; 3 days of culture; read-out: inhibitory effect on NCI-H82 (IC50)
Procedure: (§1) Cell viability was detected using the Promega CellTiter-Glo kit, cell viability was determined by directly measuring intracellular ATP content. In the experiment, the IC50 value of the compounds prepared in the Examples of the present invention on various tumor cell lines was detected.
(§2) Each tumor cell was cultured in relevant medium. After cell passage, the gradient diluted compounds prepared in the Examples of the present invention was added. After 3 days of culture, the relevant IC50 (50% inhibiting concentration) was measured. The name, source and culture conditions of each tumor cell line were as follows:
Cell line NCI-H82 (ATCC, No. HTB-175) was cultured in 10% fetal bovine serum-containing RPMI1640 medium (+P/S).

[5] = test system: G-401; assay: CellTiter-Glo cell viability, tumor cell line G-401; type: cell-based; conditions: G-401, 72 h; human renal carcinoma Wilms cell; 3 days of culture; read-out: inhibitory effect on G-401 (IC50)
Procedure: as §1, §2
Cell line G-401 (ATCC, No. CRL-1441) was cultured in 10% fetal bovine serum-containing McCoy's 5a medium (+P/S).

[6] = test system: MDA-MB-453; assay: CellTiter-Glo cell viability, tumor cell line MDA-MB-453; type: cell-based; conditions: Homo sapiens, MDA-MB-453, 72 h; breast cancer cell; 3 days of culture; read-out: inhibitory effect on MDA-MB-453 (IC50)
Procedure: as §1
as §2, with “follows: […]” for “follows:”

[7] = test system: SW48; assay: CellTiter-Glo cell viability, tumor cell line SW48; type: cell-based; conditions: SW48, 72 h; human colon adenocarcinoma cell; 3 days of culture; read-out: inhibitory effect on SW48 (IC50)
Procedure: as §1, §2
Cell line SW48 (ATCC, No. CCL-231) was cultured in 10% fetal bovine serum-containing Leibovitz's L-15 medium (+P/S).

[8] = test system: CFPAC-1; assay: CellTiter-Glo cell viability, tumor cell line CFPAC-1; type: cell-based; conditions: CFPAC-1, 72 h; human pancreatic cancer cell; 3 days of culture; read-out: inhibitory effect on CFPAC-1 (IC50)
Procedure: as §1, §2
Cell line CFPAC-1 (ATCC, No. CRL-1918) was cultured in 10% fetal bovine serum-containing IMDM medium (+P/S).

[9] = test system: 786-O; assay: CellTiter-Glo cell viability, tumor cell line 786-O; type: cell-based; conditions: Homo sapiens, 786-0, 72 h; clear cell renal cell adenocarcinoma cell; 3 days of culture; read-out: inhibitory effect on 786-O (IC50)
Procedure: as §1, §2
Cell line 786-0 (ATCC, No. CRL-1932) was cultured in 10% fetal bovine serum-containing RPMI164B medium (+P/S).

[10] = test system: GB-1; assay: CellTiter-Glo cell viability, tumor cell line GB-1; type: cell-based; conditions: GB-1, 72 h; human brain glioblastoma cell; 3 days of culture; read-out: inhibitory effect on GB-1 (IC50)
Procedure: as §1, §2
Cell line GB-1 (JCRB, No. IFO50489) was cultured in 10% fetal bovine serum-containing DMEM medium (+P/S).
(§3) Cell viability was detected using the Promega CellTiter-Glo kit, cell viability was determined by directly measuring intracellular ATP content. In the experiment, the IC50 value of the compounds prepared in the Examples of the present invention on various brain tumor cell lines was detected.

[11] = test system: SF-126; assay: CellTiter-Glo cell viability, tumor cell line SF-126; type: cell-based; conditions: SF-126, 72 h, read-out: inhibitory effect on SF-126 (IC50); human glioblastoma multiforme cell; 3 days of culture
Procedure: as §1, §2
Cell line SF126 (JCRB, No. IFO50286) was cultured in 10% fetal bovine serum-containing EMEM medium (+P/S).
as §3

[12] = test system: D341 Med; assay: CellTiter-Glo cell viability, brain tumor cell line D341 Med; type: cell-based; conditions: Homo sapiens, 72 h, cerebellar medulloblastoma cell, 3 days of culture, read-out: inhibitory effect on D341 Med (IC50)
Procedure: as §3, §2
Cell line D341 Med (ATCC, No. HTB-187) was cultured in 20% fetal bovine serum-containing EMEM medium (+P/S).

[13] = test system: Kelly; assay: CellTiter-Glo cell viability, brain tumor cell line Kelly; type: cell-based; conditions: Homo sapiens, 72 h, brain neuroblastoma cell, 3 days of culture, read-out: inhibitory effect on Kelly (IC50)
Procedure: as §3, §2
Cell line Kelly (ECACC, No. 92110411) was cultured in 10% fetal bovine serum and 2 mM glutamine-containing RPMI1640 medium.

[14] = test system: NB-1; assay: CellTiter-Glo cell viability, brain tumor cell line NB-1; type: cell-based; conditions: Homo sapiens, NB1, 72 h; brain neuroblastoma cell; 3 days of culture; read-out: inhibitory effect on NB-1 (IC50)
Procedure: as §3
as §2, with “follows: […]” for “follows:”

COc1ccc2c(c1OCCCCl)C(C1CCCC1)N1CCc3cc4c(cc3C1=C2)OCO4 (centres unmarked) [AB35434] was tested, and the IC50 [1] was 1.68 µM, the IC50 [2] was 5.12 µM and the IC50 [3] was 4.98 µM. For the same compound, the IC50 [4] was 1.68 µM, the IC50 [5] was 2.64 µM and the IC50 [6] was 2.32 µM. It also gave an IC50 [7] of 3.05 µM, an IC50 [8] of over 30 µM and an IC50 [9] of 22.2 µM. For the same compound, the IC50 [10] was 25.7 µM, the IC50 [11] was over 30 µM and the IC50 [12] was 3.15 µM. It also gave an IC50 [13] of 2.46 µM and an IC50 [14] of 2.98 µM.
